Results published in patent US12048713B2, “Pharmaceutical composition for reducing protein bound uremic toxins” (Frimline Private Limited, priority 2020, dated 2024).

Tested on: 5/6 Nephrectomy induced chronic kidney disease (CKD) in rat
Test: 5/6 Nephrectomy induced chronic kidney disease in rat: IS and PCS blood level, mortality
Assay type: in vivo, Wistar rats (Rattus norvegicus)
Conditions: for IS Mean: Indoxyl Sulphate blood level, disease control 7.33; for IS Mean / PCS Mean: p.o. daily for 13 weeks; for PCS Mean: P-Cresyl Sulphate blood level, disease control 1.13; for IS % Decreased: decrease in Indoxyl Sulphate blood level compared to disease control; for IS % Decreased / PCS % Decreased: p.o. daily 13 weeks; for PCS % Decreased: decrease in P-Cresyl Sulphate blood level compared to disease control
Procedure: The effect of the compositions of the present invention and other test and reference compositions was studied in animals. For this study, screening effect of synergistic combination or composition/formulation comprising Inulin and other active ingredients against 5/6 Nephrectomy induced chronic kidney disease (CKD) in rat was performed. The following trials were carried out:
Eighty Four (84) female rats (Wistar rats (Rattus norvegicus)) divided into 14 groups (6 per group) were maintained in animal house in a light/dark atmosphere based on a 12 hour cycle having temperature and relative humidity in the range of 19 to 25±2° C. and 30-70%, respectively. To maintain the appropriate conditions, temperature and relative humidity were recorded three times daily. All animals were acclimatized for a minimum period of five days. Animals were maintained in the test setup for minimum 30 minutes once during the acclimatization period to reduce the stress. Animals were weighed on the day of receipt and observed daily for abnormalities if any. Detailed records of acclimatization were also maintained. Rats were housed 3 per cage in clean, sterilized Polypropylene cages. During complete experiment, animals were supplied with the standard certified rat pellet feed and drinking water treated by the reverse osmosis ad libitum.
In order to evaluate the activity against chronic kidney disease, eighty four (84) rats were screened and divided into Fourteen (14) groups. For a comparative analysis, groups were divided as normal control (Group 1 (G1)), sham Control (Group 2 (G2)), disease control (Group 3 (G3)), treatment groups with individual components (Group 4 (G4), Group 5 (G5) and Group 6 (G6) as Inulin, Betaine and Resistant Starch respectively), test composition (Group 7 (G7) to Group 11 (G11) (Combination of Inulin with Betaine at different dose level), test composition Group 12 (G12) to Group 13 (G13) (Combination of Inulin, Betaine and Resistant Starch) and reference standard (Group 14 (G14)) (Activated Charcoal). Table 1 provides the details of the various groups and treatments conducted in the trial wherein G4 to G14 are treatment groups. Experiment was carried out for 3 months in two stages.
The animals under consideration were examined for a study period of 13 weeks and two-stage surgical procedure for kidney ligation and removal were performed.
Stage one: A ventral midline incision into the abdomen was made to expose the animal's left kidney and the organ was freed from the surrounding tissue. A piece of suture was placed and ligated around each pole of the kidney at its one-third position. The one-third kidney on each pole was excised beyond the ligatures and the abdominal incision was closed.
Stage two: This procedure was performed 7 days after stage one. The animals were placed in ventral recumbency and an incision was made parallel to the midline. The abdominal cavity was entered, and the right kidney was made free from the surrounding tissue. The kidney was gently pulled out from the incision and the adrenal gland was freed and replaced into the abdominal cavity. The renal blood vessels and the ureter were ligated or cauterized. The kidney was then removed by transecting the vessels and ureter just distal to the ligature or cauterized section. The skin incision was closed with wound clips.
Treatment: All treatment groups were treated on daily basis for 13 weeks after stage two of surgery. Blood collection and biochemistry analysis were done after completion of the treatment of all treated groups at the end of 13th week treatment.

Molecule | IS Mean [mg/L] | PCS Mean [mg/L] | IS % Decreased [%] | PCS % Decreased [%]
C[N+](C)(C)CC(=O)O [Betaine] | 7.01 | 1.09 | 4.37 | 3.54
Inulin | 5.55 | 0.84 | 24.29 | 25.66
Resistant Starch [RS] | 6.5 | 1.01 | 11.33 | 10.62
